Laboratory results from US20090325917A1, “Pharmaceutical Compositions and Nasal Spray Incorporating Anhydrous Mometasone Furoate” (CIPLA LIMITED, priority 2006, published 2009).

Experiments:
[1] = Rotation stability of the composition, crystalline form assessed by X-ray diffraction; type: physicochemical; conditions: in the aqueous composition; rotated for five days at 35° C. and an additional four weeks at room temperature
Excerpt: The crystalline form may be assessed using X-ray diffraction methods.

[2] = Storage stability of the composition, crystalline form assessed by X-ray diffraction; type: physicochemical; conditions: in the aqueous composition
Excerpt: The stability of the compositions in accordance with the present invention may be defined by standard methods. The anhydrous crystalline form is stable at room temperature. […] The crystalline form may be assessed using X-ray diffraction methods.

[3] = aqueous solution; converted to a different crystalline form after storage at 35° C.; cited from earlier work
[4] = Stability of the API on boiling/stirring in water, tested by X-ray diffraction; type: physicochemical; conditions: boiling in water (with and without Tween 80), two hours stirring at 70 deg in a water bath, then 2 hours at 70 deg on a magnetic stirrer; residue dried at 25° C. under vacuum
Description: The monohydrate peak is clearly visible in the BX 2029 trace, and is absent in the remaining pattern, indicating the presence of anhydrous form in the formulation. Stability of the mometasone furoate anhydrous API was confirmed by boiling in water (with and without the surfactant Tween 80) for two hours whilst stirring at 70 deg in a water bath, followed by 2 hours at 70 deg on a magnetic stirrer. The solution was cooled to room temperature, filtered and the residue containing the API was dried at 25° C. under vacuum. […]

- crystalline form of the anhydrous mometasone furoate in the composition [1]: does not change
- crystalline form of the anhydrous mometasone furoate in the composition ([2]; 25° for a period of three months): does not change
- crystalline form of the anhydrous mometasone furoate in the composition ([2]; 40° C. for a period of three months): does not change
Structure (SMILES): C[C@@H]1C[C@H]2[C@@H]3CCC4=CC(=O)C=C[C@]4(C)[C@@]3(Cl)[C@@H](O)C[C@]2(C)[C@@]1(OC(=O)c1ccco1)C(=O)CCl [anhydrous mometasone furoate]
- stability of the crystalline form in aqueous composition [3]: unstable
- XRD pattern of the dried sample after treatment in water [4]: concordant with that of mometasone furoate anhydrous
